Data on 36 molecules can be found in patent US20100056516A1 (priority 2006, published 2010).

The subject of test [1] is HXB2 virus. Nature of the test: microbe, parasite or virus in culture. Type of test: cell-based, HIV. The following applies: Human immunodeficiency virus 1, HXB2, HeLaP4-2, read-out: antiviral IC50 (SCIA-B). An outline of the steps: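 Single-cycle infectivity assay in HeLa P4-2 cells measuring inhibition of acute HIV infection, using HXB2 virus.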
Test [2] concerns the target HIV integrase (Human immunodeficiency virus type 1 group M subtype B, UniProt P04585). Nature of the test: integrase strand transfer assay (STA). The following applies: integrase strand transfer; read-out: IC50 in the STA assay. Format: biochemical.

Each structure is given as a SMILES string. pIC50: −log10 of the molar value. Bounds are passed on as bounds.

By pIC50 is commonly meant −log10 of the IC50, conventionally taken in molar units. As for `O=c1cc(NCc2ccc(F)cc2)c2cccnc2n1O` [Example 152], the pIC50 in test [1] was over 4.00; in test [2], over 4.30.
With `CN(C)C(=O)CNCc1cccc(-c2cc(=O)n(O)c3ncccc23)c1` [Example 209, 2-{[3-(1-hydroxy-2-oxo-1,2-dihydro-1,8-naphthyridin-4-yl)benzyl]amino}-N,N-dimethylacetamide], the figures for the pIC50 in test [1] and in test [2] were over 4.00 and over 4.30, respectively.
The matching figures for `Nc1cccc(-c2cccc(Cc3cc(=O)n(O)c4ncccc34)c2)c1` [Example 233, 4-[(3′-aminobiphenyl-3-yl)methyl]-1-hydroxy-1,8-naphthyridin-2(1H)-one]: over 4.00 and over 4.30.
The corresponding values for `CNC(=O)c1c(N)c2cccnc2n(O)c1=O` [Example 221, 4-Amino-1-hydroxy-N-methyl-2-oxo-1,2-dihydro-1,8-naphthyridine-3-carboxamide] are over 4.00 and over 4.30.
On to `CC(=O)c1cccc(-c2cccc(-c3cc(=O)n(O)c4ncccc34)c2)c1` [Example 191, 4-(3′-acetylbiphenyl-3-yl)-1-hydroxy-1,8-naphthyridin-2(1H)-one], for which the pIC50 in test [1] was over 4.00; in test [2], over 4.30.
For `O=C1N[C@H]2CCCC[C@@H]2Nc2c1c(=O)n(O)c1ncccc21` [Example 169, (8aS, 12aS)-5-hydroxy-8,8a,9,10,11,12,12a,13-octahydro-5H-[1,8]naphthyridino[4,3-b][1,5]benzodiazepine-6,7-dione], the pIC50 is over 4.00 in test [1] and over 4.30 in test [2].
The matching figures for `CN(C(=O)c1c(O)c2cccnc2n(O)c1=O)C1CCN(C(=O)OC(C)(C)C)CC1` [Example 9]: over 4.00 and over 4.30.
Consider `O=c1cc(-c2ccccc2)c2cccnc2n1O` [Example 171, 1-Hydroxy-4-phenyl-1,8-naphthyridin-2(H)-one], for which the figures for the pIC50 in test [1] and in test [2] were over 4.00 and over 4.30, respectively.
For the molecule `CN1C(=O)c2c(c3cccnc3n(O)c2=O)NC1c1ccccc1` (stereo not drawn) [Example 216, 6-Hydroxy-3-methyl-2-phenyl-2,3-dihydropyrimido[5,4-c]-1,8-naphthyridine-4,5(1H, 6H)-dione], the pIC50 in test [1] is over 4.00; in test [2], over 4.30.
`CN(Cc1ccccc1)c1cc(=O)n(O)c2ncccc12` [Example 130, 4-[benzyl(methyl)amino]-1-hydroxy-1,8-naphthyridin-2(1H)-one]: the pIC50 is over 4.00 in test [1] and over 4.30 in test [2].
As for `CC1CCN(Cc2cccc(CNc3cc(=O)n(O)c4ncccc34)c2)CC1` [Example 165, 1-hydroxy-4-({3-[(4-methyl-1-piperidinyl)methyl]benzyl}amino)-1,8-naphthyridin-2 (1H-one)], the pIC50 in test [1] is over 4.00; in test [2] it was over 4.30.
With `COC(=O)CCc1cccc(-c2cccc(-c3cc(=O)n(O)c4ncccc34)c2)c1` [Example 187, methyl-3-[3′-(1-hydroxy-2-oxo-1,2-dihydro-1,8-naphthyridin-4-yl)biphenyl-3-yl]-propanoate], the pIC50 in test [1] was over 4.00; in test [2], over 4.30.
Regarding `N#Cc1ccc2c(c1)CN(c1cc(=O)n(O)c3ncccc13)CC2` [Example 120, 2-(1-hydroxy-2-oxo-1,2-dihydro-1,8-naphthyridin-4-yl)-1,2,3,4-tetrahydroisoquinoline-7-carbonitrile], the pIC50 in test [1] was over 4.00; in test [2], over 4.30.
As for `NC(=O)c1cccc(-c2cc(=O)n(O)c3ncccc23)c1` [Example 196, 3-(1-hydroxy-2-oxo-1,2-dihydro-1,8-naphthyridin-4-yl)benzamide], the negative logarithm of the IC50 (pIC50) was over 4.00 in test [1] and over 4.30 in test [2].
In the case of `CCOC(=O)c1c(-c2ccc(CCc3ccc(N)cc3)cc2)c2cccnc2n(O)c1=O` [Example 264, ethyl 4-{4-[2-(4-aminophenyl)ethyl]phenyl}1-hydroxy-2-oxo-1,2,-dihydro-1,8-naphthyridin-3-carboxylate], the negative logarithm of the IC50 (pIC50) was over 4.00 in test [1] and over 4.30 in test [2].
Take `O=c1c(-c2ccccc2)c(O)c2cc(Cc3ccccc3)cnc2n1O` [Example 52, 6-Benzyl-1,4-dihydroxy-3-phenyl-1,8-naphthyridin-2(1H)-one]: the figures for the pIC50 in test [1] and in test [2] were over 4.00 and over 4.30, respectively.
The matching figures for `CC(C1CCN(c2cc(=O)n(O)c3ncccc23)CC1)N1CCOCC1` (stereo not drawn) [Example 156, 1-hydroxy-4-{4-[1-(4-morpholinyl)ethyl]-1-piperidinyl}-1,8-naphthyridin-2(1H-one)]: over 4.00 and over 4.30.
Take `CCOC(=O)c1cnc2c(c1)c(O)c(C(=O)NCc1ccccc1)c(=O)n2O` [Example 92, Ethyl 6-[(benzylamino)carbonyl]-5,8-dihydroxy-7-oxo-7,8-dihydro-1,8-naphthyridine-3-carboxylate]: the negative-log IC50 (pIC50) was over 4.00 in test [1] and over 4.30 in test [2].
Consider `COc1ccc(NC(=O)c2c(O)c3cccnc3n(O)c2=O)cc1` [Example 13, 1,4-Dihydroxy-N-(4-methoxyphenyl)-2-oxo-1,2-dihydro-1,8-naphthyridine-3-carboxamide], for which the pIC50 in test [1] is over 4.00; in test [2] it was over 4.30.
Consider `Cc1ccc(CNc2cc(=O)n(O)c3ncccc23)cc1` [Example 143, 1-hydroxy-4-[(4-methylbenzyl)amino]-1,8-naphthyridin-2(1H-one)], for which the negative-log IC50 (pIC50) in test [1] was over 4.00; in test [2] it was over 4.30.
With `CCOC(=O)c1c(-c2ccc(CCc3ccncc3)cc2)c2cccnc2n(O)c1=O` [Example 262, Ethyl 4-[4-(2-pyridin-4-ylethyl)phenyl]-hydroxy-2-oxo-1,2-dihydro-1,8-naphthyridin-3-carboxylate], the pIC50 in test [1] was over 4.00; in test [2], over 4.30.
On to `O=c1cc(NC(CN2CCCCC2)c2ccccc2)c2cccnc2n1O` (stereo not drawn) [Example 166, 1-hydroxy-4-{[1-phenyl-2-(1-piperidinyl)ethyl]amino}-1,8-naphthyridin-2 (1H-one)], for which the pIC50 was over 4.00 in test [1] and over 4.30 in test [2].
The corresponding values for `CCOC(=O)c1c(O)c2cc(C(=O)N(C)Cc3ccccc3)cnc2n(O)c1=O` [Example 80, Ethyl 6-{[benzyl(methyl)amino]carbonyl}-1,4-dihydroxy-2-oxo-1,2-dihydro-1,8-naphthyridine-3-carboxylate] are over 4.00 and over 4.30.
`O=C(Nc1cccnc1)c1c(O)c2cccnc2n(O)c1=O` [Example 16, 1,4-Dihydroxy-2-oxo-N-pyridin-3-yl-1,2-dihydro-1,8-naphthyridine-3-carboxamide]: the figures for the pIC50 in test [1] and in test [2] were over 4.00 and over 4.30, respectively.
Take `COC(=O)c1ccc2c(c1)CN(c1cc(=O)n(O)c3ncccc13)CC2` [Example 122, 4-[7-(methoxycarbonyl)-3,4-dihydroisoquinolin-2(1H)-yl]-1-hydroxy-1,8-naphthyridin-2(1H)-one]: the pIC50 in test [1] is over 4.00; in test [2] it was over 4.30.
Consider `O=C(CN1CCN(Cc2cccc(-c3cc(=O)n(O)c4ncccc34)c2)CC1)N1CCCC1` [Example 208, 1-hydroxy-4-[3-({4-[2-oxo-2-(1-pyrrolidinyl)ethyl]-1-piperazinyl}methyl)phenyl]-1,8-naphthyridin-2(1H-one)], for which the pIC50 in test [1] is over 4.00; in test [2], over 4.30.
As to `COc1cccc(CNc2cc(=O)n(O)c3ncccc23)c1` [Example 145, 1-hydroxy-4-[(3-methoxybenzyl)amino]-1,8-naphthyridin-2(1H-one)], the pIC50 in test [1] is over 4.00; in test [2], over 4.30.
The matching figures for `CC(c1ccccc1)N1CCN(Cc2cccc(-c3cc(=O)n(O)c4ncccc34)c2)CC1` (stereo not drawn) [Example 210, 1-hydroxy-4-(3-{[4-(1-phenylethyl)-1-piperazinyl]methyl}phenyl)-1,8-naphthyridin-2(1H-one)]: over 4.00 and over 4.30.
Turning to `O=c1cc(NCC(c2ccccc2)N2CCOCC2)c2cccnc2n1O` (stereo not drawn) [Example 110, 1-Hydroxy-4-[(2-morpholin-4-yl-2-phenylethyl)amino]-1,8-naphthyridin-2(1H)-one], the pIC50 is over 4.00 in test [1] and over 4.30 in test [2].
In the case of `O=c1cc(N[C@H]2CCN(Cc3ccccc3)C2)c2cccnc2n1O` [Example 114, 4-{[(3S)-1-Benzylpyrrolidin-3-yl]amino}-1-hydroxy-1,8-naphthyridin-2(1H)-one], the pIC50 in test [1] was over 4.00; in test [2], over 4.30.
As for `CC(=O)Nc1cc(=O)n(O)c2ncccc12` [Example 100, N-(1-Hydroxy-2-oxo-1,2-dihydro-1,8-naphthyridin-4-yl)acetamide], the pIC50 in test [1] is over 4.00; in test [2], over 4.30.
For the molecule `O=C(Nc1cc(=O)n(O)c2ncccc12)c1ccccc1` [Example 102, N-(1-Hydroxy-2-oxo-1,2-dihydro-1,8-naphthyridin-4-yl)benzamide], the negative logarithm of the IC50 (pIC50) in test [1] is over 4.00; in test [2], over 4.30.
Turning to `O=c1cc(NCCN2CCOCC2)c2cccnc2n1O` [Example 161], the values for the pIC50 in test [1] and in test [2] were over 4.00 and over 4.30, respectively.
Turning to `CCOC(=O)c1c(-c2cccc(-c3ccc(CN)cc3)c2)c2cc(-c3ccccc3OC)cnc2n(O)c1=O` [Example 248, ethyl 4-[4′-(aminomethyl)biphenyl-3-yl]-1-hydroxy-6-(2-methoxyphenyl)-2-oxo-1,2-dihydro-1,8-naphthyridine-3-carboxylate], the pIC50 in test [1] was over 4.00; in test [2], over 4.30.
For the molecule `CS(=O)(=O)Nc1cccc(-c2cccc(-c3cc(=O)n(O)c4ncccc34)c2)c1` [Example 177, N-[3′-(1-hydroxy-2-oxo-1,2-dihydro-1,8-naphthyridin-4-yl)biphenyl-3-yl]methanesulfonamide], the pIC50 in test [1] was over 4.00; in test [2], over 4.30.
As for `CCOC(=O)c1c(O)c2cc(-c3ccccc3)cnc2n(O)c1=O` [Example 49, Ethyl 1,4-dihydroxy-2-oxo-6-phenyl-1,2-dihydro-1,8-naphthyridine-3-carboxylate], the pIC50 was over 4.00 in test [1] and over 4.30 in test [2].
